Consider 2 compounds from EP4667007A2, “NOVEL ASSOCIATION OF GASTRODIA ELATA AND VITAMIN B” (Futura S.r.l., priority 2024, dated 2025).

Read-outs that look alike come from different tables or passages of the source.

Data set [1] has as its system Caco-2 cells. Kind of data set: In vitro intestinal barrier model, absorption with fluorescent tracer (Transwell).
Data set [2] relates to Caco-2 cells. The following applies: human.
A further data set deals with neuregulin 1 (NRG1). Kind of data set: 3D EngNT under PNI conditions, NRG1 ELISA. Format: cell-based, rat. The conditions noted are these: GGF 200 ng/mL, result in words. How it is done:
To replicate a strong demyelination before stimulation with the two formulations and the single drugs, the 3D EngNT was pre-treated with 200 ng/mL glial growth factor 2 (GGF) starting on day 14 of maturation. This was necessary since the study needed to replicate the peripheral nerve tissue damage in vitro. Therefore, further studies were conducted to investigate the effects on cell viability and ROS production (Figures 5A-B). […] In contrast, both the individual components and formulations were able not only to re-establish physiological conditions, but also to induce a significant increase in cell viability and a decrease in ROS production (p<0.05). […]
This study was carried out in three different phases; the starting point of the study protocol was intended to study the absorption and transport processes of the novel formulation and individual components through the intestinal barrier using a 3D in vitro model with Caco-2 cells. […] Finally, in the third phase, peripheral nerve damage and demyelination were simulated in vitro, treating 3D EngNT with GGF 200ng/ml, to explore cell survival and mitochondrial activity, oxidative stress and ROS quantification, the inflammatory processes involved in neuropathy, nociceptive pathways for pain control, and the main pathways involved in the processes of myelin sheath protection and neurite formation. […]

On to `CC(=O)O[C@H](CC(=O)[O-])C[N+](C)(C)C` [Acetyl-L-Carnitine, (R)-3-acetyloxy-4-trimethylammonium-butanoate], for which the “Absorption Rate” value with Caco-2 cells [1] (2h, Gastrodin 25µM, Citicoline 250mM, Acetyl-L-Carnitine 7.5µM, Vit. B group 1mg/mL, Lipoic Acid 50µM) is listed as 69.49%; in the data set on Caco-2 cells [1] (3h, same concentrations), 77.35%; in the data set with Caco-2 cells [1] (4h, same concentrations) it was 80.65%; in the data set with Caco-2 cells [1] (5h, same concentrations), 69.90%; in the data set with Caco-2 cells [1] (6h, same concentrations), 54.16%.
For the compound `O=C(O)CCCCC1CCSS1` (stereo not shown) [Lipoic acid], the “Absorption Rate” value came out at 49.27% in the data set on Caco-2 cells [2] (3 h), 53.77% in the data set on Caco-2 cells [2] (4 h), 51.71% in the data set on Caco-2 cells [2] (5 h) and 41.36% in the data set on Caco-2 cells [2] (6 h). The NRG1 activity entry with neuregulin 1 (NRG1) was “not able to improve it compared to GGF 200ng/mL”.
